Measured values reported in ChEMBL document CHEMBL4261544, “Structure-metabolism-relationships in the microsomal clearance of piperazin-1-ylpyridazines” (Medchemcomm, 2017).

Tests used:
[1] = Extraction ratio in mouse liver microsomes at 10 uM in presence of NADPH by LC-MS/MS analysis; type: ADME, microsome; conditions: read-out: ERH
[2] = Half life in mouse liver microsomes at 10 uM in presence of NADPH by LC-MS/MS analysis; type: ADME, microsome; conditions: for half-life at 10 µM: liver microsomes
[3] = Extraction ratio in human liver microsomes at 10 uM in presence of NADPH by LC-MS/MS analysis; type: ADME, microsome; conditions: read-out: ERH
[4] = Half life in human liver microsomes at 10 uM in presence of NADPH by LC-MS/MS analysis; type: ADME, microsome; conditions: for half-life at 10 µM: liver microsomes
[5] = Metabolic stability in mouse liver microsomes assessed as parent compound remaining at 10 uM in presence of NADPH after 60 mins by LC-MS/MS analysis; type: ADME, microsome; conditions: 1 h
[6] = Metabolic stability in human liver microsomes assessed as parent compound remaining at 10 uM in presence of NADPH after 60 mins by LC-MS/MS analysis; type: ADME, microsome; conditions: 1 h
[7] = Drug metabolism in human liver microsomes assessed as 6-(4-(o-tolylsulfonyl)piperazin-1-yl)pyridazine-3-carboxamide formation at 10 uM in presence of NADPH after 60 mins by LC-MS/MS analysis; type: ADME, microsome; conditions: 1 h
[8] = Drug level in human liver microsomes treated with N-benzyl-6-(4-(o-tolylsulfonyl)piperazin-1-yl)pyridazine-3-carboxamide at 10 uM in presence of NADPH after 60 mins by LC-MS/MS analysis; type: ADME, microsome; conditions: 1 h
[9] = Drug level in mouse liver microsomes treated with N-benzyl-6-(4-(o-tolylsulfonyl)piperazin-1-yl)pyridazine-3-carboxamide at 10 uM in presence of NADPH after 60 mins by LC-MS/MS analysis; type: ADME, microsome; conditions: 1 h
[10] = Drug metabolism in mouse liver microsomes assessed as oxidation at benzene ring C at 10 uM in presence of NADPH after 30 to 60 mins by LC-MS/MS analysis; type: ADME, microsome
[11] = Drug metabolism in mouse liver microsomes assessed as oxidation at benzene ring A at 10 uM in presence of NADPH after 30 to 60 mins by LC-MS/MS analysis; type: ADME, microsome
[12] = Drug metabolism in mouse liver microsomes assessed as oxidation at benzene ring D at 10 uM in presence of NADPH after 30 to 60 mins by LC-MS/MS analysis; type: ADME, microsome
[13] = Drug metabolism in mouse liver microsomes assessed as oxidation at benzene ring B at 10 uM in presence of NADPH after 30 to 60 mins by LC-MS/MS analysis; type: ADME, microsome
[14] = Aqueous solubility in pH 7.4 PBS buffer; type: physicochemical

Structure (SMILES) | hepatic extraction ratio at 10 µM [1] | half-life at 10 µM [2] | hepatic extraction ratio at 10 µM [3] | half-life at 10 µM [4] | also measured
Cc1ccccc1S(=O)(=O)N1CCN(c2ccc(C(=O)NCc3ccc(F)cc3)nn2)CC1 | 0.7 | 26 min | 0.56 | 34 min | 
Cc1ccccc1S(=O)(=O)N1CCN(c2ccc(C(=O)NCc3ccccc3)nn2)CC1 | 0.97 |  | 0.93 |  | Stability [5]: 42%; t1/2 ([2]; microsomes, 10 µM): 2 min; Stability [6]: 62%; t1/2 ([4]; microsomes, 10 µM): 3 min; Drug metabolism [7]: Metabolite_Notdetected
Cc1ncccc1S(=O)(=O)N1CCN(c2ccc(C(=O)NCc3ccc(F)cc3)nn2)CC1 |  | 8 min |  |  | 
O=C(NCc1ccc(F)cc1)c1ccc(N2CCN(S(=O)(=O)c3cccnc3Cl)CC2)nn1 |  | 13 min |  |  | 
Cc1ccccc1S(=O)(=O)N1CCN(c2ccc(C(=O)NCc3cccs3)nn2)CC1 | 0.97 | 2 min | 0.92 | 4 min | 
O=C(NCc1ccccc1)c1ccc(N2CCN(S(=O)(=O)c3ccccc3Cl)CC2)nn1 | 0.97 | 2 min | 0.89 | 5 min | 
Nc1ncccc1S(=O)(=O)N1CCN(c2ccc(C(=O)NCc3ccc(F)cc3)nn2)CC1 |  | 19 min |  |  | 
Cc1ccccc1S(=O)(=O)N1CC2(CN(c3ccc(C(=O)NCc4ccc(F)cc4)nn3)C2)C1 | 0.98 | 2 min | 0.97 | 1 min | 
Cc1cc(F)ccc1S(=O)(=O)N1CCN(c2ccc(C(=O)NCc3ccc(F)cc3)nn2)CC1 | 0.8 | 15 min |  |  | 
Cc1nc(C(F)(F)F)ccc1S(=O)(=O)N1CCN(c2ccc(C(=O)NCc3ccc(F)cc3)nn2)CC1 |  | 23 min |  |  | 
O=C(NCc1ccccc1)c1ccc(N2CCC(S(=O)(=O)c3cccc(Cl)c3Cl)CC2)nn1 | 0.75 | 20 min | 0.61 | 27 min | 
Cc1ccccc1S(=O)(=O)N1CCN(c2ccc(C(N)=O)nn2)CC1 |  |  |  |  | Drug metabolism [8]: Metabolite_Detected; Drug metabolism [9]: Metabolite_Detected
O=C(NCc1ccc(F)cc1)c1ccc(N2CCN(S(=O)(=O)c3ccccc3C(F)(F)F)CC2)nn1 | 0.66 | 31 min |  |  | Drug metabolism [10]: Metabolite_Detected; Drug metabolism [11]: Metabolite_Notdetected; Drug metabolism [12]: Metabolite_Detected; Drug metabolism [13]: Metabolite_Detected
Cc1ccccc1S(=O)(=O)N1CC=C(c2ccc(C(=O)NCc3ccc(F)cc3)nn2)CC1 | 0.94 | 5 min | 0.96 | 2 min | 
N#Cc1ncccc1S(=O)(=O)N1CCN(c2ccc(C(=O)NCc3ccc(F)cc3)[n+]([O-])n2)CC1 |  | 16 min |  |  | 
O=C(NCc1ccc(F)cc1)c1ccc(N2CCN(S(=O)(=O)c3cccnc3O)CC2)nn1 |  | 72 min |  |  | 
Cc1ccccc1S(=O)(=O)N1CCN(c2ccc(C(=O)NCc3cncs3)nn2)CC1 | 0.77 | 18 min | 0.59 | 30 min | 
O=C(NCc1ccc(F)cc1)c1ccc(N2CCN(S(=O)(=O)c3cccnc3N3CCOCC3)CC2)nn1 |  | 2 min |  |  | 
O=C(NCc1ccccc1)c1ccc(N2CCN(S(=O)(=O)c3cccc(Cl)c3Cl)CC2)nn1 | 0.81 | 14 min | 0.73 | 16 min | 
Cc1ccc(F)cc1S(=O)(=O)N1CCN(c2ccc(C(=O)NCc3ccc(F)cc3)nn2)CC1 | 0.47 | 68 min | 0.78 | 12 min | solubility [14]: Insoluble
O=C(NCc1ccc(F)cc1)c1ccc(N2CC3(C2)CN(S(=O)(=O)c2cccnc2Cl)C3)nn1 |  | 113 min | 0.29 | 0.35 min | 
O=C(NCc1ccc(F)cc1)c1ccc(N2CCN(S(=O)(=O)c3cccnc3C3CC3)CC2)nn1 |  | 6 min |  |  | 
Cc1ccccc1S(=O)(=O)N1CCN(c2cnc(C(=O)NCc3ccc(F)cc3)cn2)CC1 | 0.95 | 3 min | 0.95 | 2 min | 
O=C(NCc1ccc(F)cc1)c1ccc(N2CCN(S(=O)(=O)c3ccc(F)cc3C(F)(F)F)CC2)nn1 | 0.84 | 12 min |  |  | Drug metabolism [10]: Metabolite_Detected; Drug metabolism [11]: Metabolite_Notdetected; Drug metabolism [12]: Metabolite_Detected; Drug metabolism [13]: Metabolite_Detected
N#Cc1ncccc1S(=O)(=O)N1CCN(c2ccc(C(=O)NCc3ccc(F)cc3)nn2)CC1 |  | 5 min |  |  | 
